Like-named read-outs stand apart in the source and are kept apart here.
Legend:
HDV [1] = test: HDV replication in HDV monoinfected dHepaRG cells (total HDV RNA, RT-qPCR); format: cell-based, Hepatitis D virus; conditions: day 4 to 11 post-infection
Protocol: FIG. 6. FXRα agonists inhibit HDV replication in monoinfected dHepaRG cells.
Total RNA was prepared using NucleoSpin RNA Plus (Macherey-Nagel). After DNA digestion with TURBO DNase (Ambion), maximum 1000 ng RNA were reverse-transcribed using High-Capacity RNA-to-cDNA kit (Thermo Fisher Scientific). […] . All assays were performed in triplicate.

HDV genomic RNA = HDV genomic RNA in HDV monoinfected dHepaRG cells (Northern Blot); conditions: day 4 to 11 post-infection
Protocol: Differentiated HepaRG cells were infected with HDV at a MOI of 25 GE/cell. From day 4 to day 11 post-infection, cells were treated with 1 or 10 μM of GW4064, 10 μM of 6-ECDCA and 1 μM of tropifexor. At day 11 post HDV infection, cells were collected and HDV genomic RNA was analyzed by Northern Blot.
To determine if FXRα-mediated inhibition of HDV was independent of HBV, the inventors analyzed the impact of FXRα agonists in HDV mono-infected dHepaRG cells.
Total RNA was extracted from infected cells using Tri Reagent® (TR118, Molecular Research Center). […] After electrotransfer to charged nylon membranes (Roche), genomic HDV RNA sequences were detected by using a strand-specific RNA probe synthesized using the Dig RNA Labeling kit (Sp6/T7) (Roche) and DIG luminescent detection kit (Roche) accordinng to the manufacturer's instruction. Quantification of signals were done with ImageLab.
As an internal control for the amount and quality of the extracted RNA, the membrane was stripped and rehybridized by using labeled oligonucleotides specific for human 18S rRNA and 28S rRNA.

HDV [2] = test: HDV replication in HBV/HDV coinfected dHepaRG cells (intracellular HDV RNA, RT-qPCR); format: cell-based, Hepatitis D virus; conditions: 10 μM, treated day 3 to 13 post-infection
Protocol: The HepaRG cell line derived from a human cellular hepato carcinoma can differentiate and regain many phenotypic traits of hepatocytes after 4 weeks of culture under defined conditions^1. HepaRG cells were cultured, differentiated, and infected by HBV and HDV as previously described^2,3.
Total RNA was prepared using NucleoSpin RNA Plus (Macherey-Nagel). After DNA digestion with TURBO DNase (Ambion), maximum 1000 ng RNA were reverse-transcribed using High-Capacity RNA-to-cDNA kit (Thermo Fisher Scientific). […] All assays were performed in triplicate.

HBV = test: Anti-HBV activity in HBV/HDV coinfected dHepaRG cells (intracellular HBV RNAs, secreted HBs and HBe antigens); format: cell-based, Hepatitis B virus; conditions: 10 μM, day 13
Source text: FIG. 1. FXRα agonist inhibits HDV replication in HBV-HDV coinfected dHepaRG cells. […] Cells and supernatants were harvested at day 13 for intracellular HBV and HDV RNA and secreted antigens quantification. Results are the mean+/−SD of two experiments performed with three biological replicates.
The inventors first evaluated the impact of FXRα agonists on HDV replication in in vitro coinfected dHepaRG cells. Cells were simultaneously infected with HBV and HDV. […] At day 13 post-infection, cells and supernatants were collected. The intracellular amounts of HDV and HBV RNAs were quantified as well as secreted HBe and HBs antigens.
HBV stocks (genotype D, Genbank ID U95551) were prepared using the HepAD38 cell line according to previously described protocols^7.
HBs and HBe antigens secreted in cells supernatant were quantified, after required dilutions, on Mini Vidas apparatus with Vidas HBs and Vidas HBE/HBET kits (bioMerieux, France) or Autobio kits (AutoBio, China) according to manufacturer's protocol.
Total RNA was prepared using NucleoSpin RNA Plus (Macherey-Nagel). After DNA digestion with TURBO DNase (Ambion), maximum 1000 ng RNA were reverse-transcribed using High-Capacity RNA-to-cDNA kit (Thermo Fisher Scientific). Quantitative PCR was carried out with primers HDV-F (5′-[…] -3′, SEQ ID NO: 1) and HDV-R (5′-[…] -3′, SEQ ID NO: 2) for quantification of total HDV RNA and HBV-F (5′-[…] -3′, SEQ ID NO: 3) and HBV-R (5′-[…] -3′, SEQ ID NO: 4) for quantification of pregenomic/precore HBV RNA. cDNA was analysed by quantitative PCR (qPCR) using QuantiFast SYBR® Green PCR kit (Qiagen) on LightCycler® 480 instrument (Roche) using a 45 PCR cycles. All assays were performed in triplicate. Relative quantification was determined by normalizing the expression of each gene to S9 housekeeping gene using primers S9-F (5′-[…] -3′, SEQ ID NO: 5) and S9-R (5′-[…] -3′, SEQ ID NO: 6).

HDV [3] = test: HDV replication in HBV-infected dHepaRG super-infected with HDV (intracellular HDV RNA, RT-qPCR); format: cell-based, Hepatitis D virus; conditions: 7 days treatment, superinfected dHepaRG
HDV [4] = test: HDV replication in HBV-infected PHH super-infected with HDV (intracellular HDV RNA, RT-qPCR); format: cell-based, Hepatitis D virus; conditions: 7 days treatment, superinfected PHH
nascent HDV RNAs = test: Run-On assay of nascent HDV RNAs in HBV/HDV co-infected dHepaRG; format: cell-based, Hepatitis D virus; conditions: 10 μM for 4 days, 2 h labelled uridin, coinfected dHepaRG
Protocol: FIG. 8. Decrease of the levels of nascent HDV RNAs in HBV/HDV co-infected dHepaRG treated with FXRα agonists. dHepaRG were co-infected with HBV (100 vge/cell) and with HDV (10 vge/cell). […] Cells were incubated with labelled uridin or not (mock-EU) for 2 h, washed and harvested. Total intracellular HDV RNAs as well as EU-labelled HDV RNAs (nascent intracellular HDV RNAs) were isolated and quantified by RT-qPCR analyses. As a control, cells were treated with actinomycin D (10 μg/mL, ActD) 20 min before incubation with labelled uridin in order to block transcription of nascent RNAs. Results are the mean+/−SD one experiment performed with three biological replicates.
Six days post-infection, cells were treated with 10 μM of GW4064 for 4 days before Run-On experiment.
HDV-infected HepaRG cells were incubated with labelled uridin or not (mock-EU) for 2 h, washed and harvested. Total intracellular HDV RNAs as well as EU-labelled HDV RNAs (nascent intracellular HDV RNAs) were isolated using the Click-iT™ Nascent RNA Capture Kit (Thermofisher Scientific) according to the manufacturer's instruction. As a control, cells were treated with 10 μg/mL of actinomycin D 20 min before incubation with labelled uridin in order to block transcription of nascent RNAs.

[5] = in vivo; cited from earlier work
HDV particles = test: Specific infectivity of secreted HDV particles on naïve Huh7.5-NTCP cells; conditions: 6 days post infection
Protocol: (A) Supernatants of infected dHepaRG cells were collected, concentrated by PEG precipitation and the levels of extracellular HDV RNAs were assessed by qRT-PCR analyses. (B-C) Naïve HuH7.5-^NTCP cells were infected with the different concentrated supernatants with (B) 500 vge/cell or (C) as indicated. Six days later, levels of intracellular HDV RNAs were assessed by RT-qPCR analyses. Results of RT-qPCR are the mean+/−SD of three independent experiments each performed with three biological replicates.
Finally, naïve Huh7.5-^NTCP cells were infected with the same concentrated supernatants but using two different HDV inoculum, 100 and 500 vge/cell, for each condition.
(§1) For analysis of HDV virion specific infectivity, supernatants from dHepaRG infected with both HBV and HDV were concentrated using 8% PEG 8000. HDV RNA was quantified by RT-qPCR in concentrates and Huh7.5^NTCP cells were infected using same viral genome equivalents (vge) of concentrated virus for each condition of treatment. Six days post infection, total cellular RNA was extracted and HDV RNA was quantified by RT-qPCR.

[6] = tested on: HDV antigens (HDAg-L, HDAg-S); conditions: superinfected PHH, Western Blot densitometry normalized to B-tubulin
Protocol: PHH were infected with HBV at a MOI of 100 GE/cell and 4 days later with HDV at a MOI of 10 GE/cell. […] Cells and supernatants were harvested at day 14 post HBV infection for intracellular HDV RNA quantification and lysed for protein extraction and WB analyses. Graphs represent the densitometry analyses of the respective blots and results are presented as ratios of HDAgs normalized to the levels of B-tubulin.
(§2) Cells were harvested in RIPA lysis buffer (NaCl 150 mM, Tris HCl pH=8.0 50 mM, SDS 0.1%, NP40 1%, Na Deoxycholate 0.5%) containing protease inhibitors (Protein Cocktail Inhibitors from Sigma-Aldrich, NaF 10 mM, Na Orthovanadate 10 mM). Clarified lysates were subjected to 10% SDS-PAGE and Western Blot transfer onto PVDF or nitrocellulose membranes using the TransTurbo Blot apparatus according to the manufacturer (Biorad). Primary antibodies are the HDVAg antibody (kind gift of Dr Alain Kay) and the beta-tubulin antibody (Abcam). Secondary HRP antibodies were purchased from Sigma-Aldrich. HRP signal detection was determined electronically using Ozyme—Syngene PXi Image system and parameters set strictly below the saturation point.

[7] = tested on: HDV antigens (HDAg-L, HDAg-S); conditions: superinfected dHepaRG, Western Blot densitometry normalized to B-tubulin
Protocol: Differentiated HepaRG cells were infected with HBV at a MOI of 100 GE/cell and 7 days later with HDV at a MOI of 10 GE/cell. […] Cells were harvested at day 17 post HBV infection and lysed for protein extraction and WB analyses. Graphs represent the densitometry analyses of the respective blots and results are presented as ratios of HDAgs normalized to the levels of B-tubulin.
as §2

HDV [8] = test: Secretion of HDV RNA from HBV/HDV coinfected dHepaRG cells (RT-qPCR of concentrated supernatants); conditions: 10 μM for 10 days
Protocol: (A) Supernatants of infected dHepaRG cells were collected, concentrated by PEG precipitation and the levels of extracellular HDV RNAs were assessed by qRT-PCR analyses. […] Results of RT-qPCR are the mean+/−SD of three independent experiments each performed with three biological replicates.
as §1

SMILES: CC[C@H]1[C@@H](O)[C@@H]2[C@H](CC[C@]3(C)[C@@H]([C@H](C)CCC(=O)O)CC[C@@H]23)[C@@]2(C)CC[C@@H](O)C[C@@H]12 [6-ECDCA, 6-ethyl-cheno-deoxycholic acide]
- decrease of total HDV RNA (HDV [1]; 10 μM): around 60%
- amount of genomic HDV RNA (HDV genomic RNA; 10 μM): decreased

SMILES: CC(C)c1onc(-c2c(Cl)cccc2Cl)c1COc1ccc(/C=C/c2cccc(C(=O)O)c2)c(Cl)c1 [GW4064, 3-[2-[2-Chloro-4-[[3-(2,6-dichloro-phenyl)-5-(1-methylethyl)-4-isoxazolyl]methoxy]phenyl]ethenyl] benzoic acid]
- decrease of total intracellular HDV RNA (HDV [2]): 60%
- anti-HBV activity on amount of intracellular HBV RNAs (HBV): verified
- anti-HBV activity on secreted HBe antigen (HBV): verified
- anti-HBV activity on secreted HBs antigen (HBV): verified
- decrease of total intracellular HDV RNA (HDV [3]; 1 μM): very pronounced
- decrease of total intracellular HDV RNA (HDV [3]; 10 μM): up to 60%
- decrease of total intracellular HDV RNA (HDV [4]; 1 μM): very pronounced
- decrease of total intracellular HDV RNA (HDV [4]; 10 μM): ≤ 45%
- decrease of total HDV RNA (HDV [1]; 10 μM): around 60%
- synthesis of nascent HDV RNA (nascent HDV RNAs): able to inhibit
- bioavailability [5]: limited
- amount of genomic HDV RNA (HDV genomic RNA; 10 μM): decreased
- intracellular HDV RNA levels with inoculum 100 versus 500 vge/cell (HDV particles; Huh7.5-NTCP infected with supernatants of treated dHepaRG): no significant difference
- decrease of intracellular HDV RNA in cells infected with supernatants of treated dHepaRG (HDV particles; producer cells treated 10 μM, Huh7.5-NTCP infected with 500 vge/cell): more than 95%
- reduction of HDAg-L (large HDV antigen) amount [6]: 75%
- reduction of HDAg-S (small HDV antigen) amount [6]: 75%
- reduction of HDAg-L (large HDV antigen) amount [7]: 75%
- reduction of HDAg-S (small HDV antigen) amount [7]: 75%
- decrease of secreted HDV RNA (HDV [8]): 65%

SMILES: O=C(O)c1cc(F)c2nc(N3[C@@H]4CC[C@H]3C[C@@H](OCc3c(-c5ccccc5OC(F)(F)F)noc3C3CC3)C4)sc2c1 [tropifexor, 2-[(1R,3r,5S)-3-({5-cyclopropyl-3-[2-(trifluoromethoxy)phenyl]-1,2-oxazol-4-yl}methoxy)-8-azabicyclo[3.2.1]octan-8-yl]-4-fluoro-1,3-benzothiazole-6-carboxylic acid]
- decrease of total HDV RNA (HDV [1]; 1 μM): around 60%
- amount of genomic HDV RNA (HDV genomic RNA; 1 μM): decreased
